The test system of one test is PC-3 cells. As to the kind of experiment: CyQuant cell count, sensitization to doxorubicin. The format is cell-based, human. Conditions: Homo sapiens. As to the method: The addition of 100 μM of Ia reduced the IC50 of doxorubicin to 0.1 μM for PC-3 cells and the IC50 of etoposide to 0.04 μM for HeLa cells. Therefore, the treatment with 100 μM of compound Ia causes a sensitization to the cytotoxic effects of doxorubicin of 5 times (PC-3 cells) and a sensitization to the cytotoxic effects of etoposide of 30 times (HeLa cells).

For a further test, the system named is PC-3.Sluc cells tumors. The experiment in a line: PC-3.Sluc tumor xenografts in Balb/c nu/nu mice, light emission (RLUs). Type of test: in vivo. To be noted: doxorubicin alone i.v., 5 mg/Kg, once a week; 56 days. As to the method:
For the purpose of determining if Varubin has an in vivo antitumor activity, its effects in mice having tumors formed from PC-3 cells were analyzed. The experimental tumors were formed by means of the intramuscular inoculation of PC-3.Sluc cells. The latter are PC-3 prostate cells in which they have been integrated by means of transfecting plasmid pRC/CMV-luc, which expresses the firefly (Photinus pyralis) luciferase gene in mammalian cells q. The incubation of the PC-3.luc cells with D-luciferin, a luciferase substrate, produces light, which can be quantified in an absolute manner (number of photons) either by means of a luminometer or by means of detection with a CCD (charge-coupled device) camera. The latter process further allows representing in real time images of the location of the tumor cells in the inoculated animals, as well as the tumor size, since the intensity of the light (number of photons) emitted in the presence of luciferin is directly proportional to the number of PC-3.luc cells.
For these studies, 24 male Balb/c nu/nu mice (Charles River Laboratories) of an age of 6 weeks were used. These animals were kept in a pathogen-free environment at all times, having been kept in the animal housing facility for 1 week after they were received, before the experimental handling. After being anesthetized by means of an intraperitoneal (i.p.) injection of a mixture at equal parts of 6 mg/Kg of droperidol (Roche, Basel, Switzerland) and 12 mg/Kg of midazolam (Rovi S.A, Madrid, Spain), intramuscular (i.m.) injections were performed both in the right leg and in the left leg of each animal of 1×10^6 PC-3.Sluc cells, suspended in 100 μL of fetal bovine serum-free culture medium. The development of tumors in the inoculation sites was allowed for 2 weeks, after which a first measurement of photons emitted was made and a first capture of images with an ORCA-2BT Imaging System instrument (Hammamatsu Photonics) provided with a C4742-98-LWG-MOD model CCD camera (cooled at −80° C.) was done at a resolution of 512×512 pixels. […] Four minutes later, photons were detected and quantified for 5 minutes in the instrument described above. […] The quantification and the analysis of photons were performed with the aid of the image analysis program WASABI (Hamamatsu Photonics). […] For the graphic representations, the quantitative data (RLUs) were standardized, for each tumor, in relation to the RLUs of day 0 of treatment.
The 24 mice, having luminescent tumors in both legs, were included in 4 experimental groups: (1) Control group, in which an intravenous (i.v.) injection of 100 μL of phosphate buffered saline pH 7.4 (PBS) and 50 μL of intratumoral (i.t.) PBS was performed. […] The light emission of the tumors was analyzed throughout 56 days from the start of the treatment.

The test system of the next test is HeLa cells. The experiment in a line: CyQuant cell count, sensitization to etoposide. To be noted: Homo sapiens, HeLa, 24 h, read-out: IC50 for etoposide.

Molecules are shown by their SMILES. Where two headings read alike, the source gives them in different places.

`COc1cccc2c1C(=O)c1c(O)c3c(c(O)c1C2=O)C[C@@](O)(C(=O)CO)C[C@@H]3O[C@H]1C[C@H](N)[C@H](O)[C@H](C)O1` [doxorubicin]: the IC50 is ~500 nM in the test on PC-3 cells (72 hours of treatment, doxorubicin alone, read-out: IC50 for doxorubicin) and 100 nM in the test on PC-3 cells (plus 100 μM of Ia, read-out: IC50 of doxorubicin with addition of Ia). In addition, the “tumor growth (RLUs)” value in the test on PC-3.Sluc cells tumors is listed as “hardly experienced growth”.

`COc1cc([C@@H]2c3cc4c(cc3[C@@H](O[C@@H]3O[C@@H]5CO[C@@H](C)O[C@H]5[C@H](O)[C@H]3O)[C@H]3COC(=O)[C@H]23)OCO4)cc(OC)c1O` [etoposide, reference compound]: the IC50 in the test with HeLa cells is ~1250 nM.
